Data from PubChem BioAssay (NCI).
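1) Cells in 96-well plates. 2) Compound, 48 h, 5 concentrations. 3) Linear interpolation between surrounding doses. 4) Unreached endpoint = highest concentration. GI50 marks 50% less growth. TGI denotes the concentration required for complete inhibition of growth.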

tested on: HOP-92 NSCLC; assay: DTP human tumour cell line panel, 48 h

SMILES | TGI [µM] | GI50 [µM]
Cc1nc(N)sc1C(=O)/C=C\c1ccc2c(c1)OCO2 | > 100 | 
CN1CCN(CCCOc2ccc3nc(Nc4ccc(Cl)c(C(F)(F)F)c4)ccc3c2)CC1 | 18.8 | 5.46
Cn1c(=O)c(C(c2ccc([N+](=O)[O-])cc2)c2c(O)c3ccccc3n(C)c2=O)cc2ccccc21 (stereo unspecified) | > 100 | 
CC(C)n1nc(-c2cc3cc(O)ccc3[nH]2)c2c(N)ncnc21 | 0.483 | 0.0344
CCCCC(O)(c1ccc(Cl)cc1)C(CN1CCOCC1)c1ccc(Cl)cc1 (stereo unspecified) | 23.6 | 10.6
CCOC(=O)C1=C(C)N(NC(=O)Nc2ccccc2)C(=O)C1=P(c1ccccc1)(c1ccccc1)c1ccccc1 | > 100 | 
COc1cc(C=C2C(=O)NC(=O)NC2=O)cc(OC)c1OC | > 100 | 
Nn1c(=O)n(Cc2ccccc2)n(-c2ccccc2)c1=O | > 100 | 
NCC1Nc2ccccc2[C@@H](O)C1O (stereo partly specified) | > 100 | 
OC[C@H]1CCCC1O (stereo partly specified) | > 100 | 
Cc1cccc(N2CCN(C(=S)c3ccc4c(c3)OCO4)CC2)c1 | > 100 | 24.6
O=C1OC(C(O)CO)C(=O)C1=O (stereo unspecified) | 4230 | 2060
COC(=O)C1=CNC=C(C(=O)OC)C1C1=CC(=O)C(C)=CC1=O | 15.6 | 4.65
C=C1C(=O)O[C@H]2[C@H]1CC/C(COC(=O)C(=O)c1cn(Cc3ccccc3)c3ccccc13)=C\CC[C@@]1(C)O[C@@H]21 | 4.38 | 1.88
Cc1ccc(C(=O)CN(/C=C/C(=O)C(F)(F)F)c2ccc(S(N)(=O)=O)cc2)cc1 | > 100 | 99.7
COC(C(O)CO)C(O)C(O)C(=O)NNc1ccccc1 (stereo unspecified) | > 100 | 

SMILES | TGI [µM] | GI50 [µM]
NS(=O)(=O)c1ccc(NC2(C(=O)O)CCCC2)cc1 | > 100 | 
O=C(O)C1OC(n2cc(F)c(=O)[nH]c2=O)CC1O (stereo unspecified) | > 51.4 | 
CC(C)C(Nc1c2ccccc2nc2ccccc12)C(=O)O (stereo unspecified) | > 100 | 
N=C1C(c2nc3ccccc3s2)=C(O)CN1c1cc(C(F)(F)F)ccc1Cl | 98.1 | 7.69
COc1ccccc1CCc1cc(OC)c(OC)c(OC)c1 | > 100 | 
COc1cc2c(cc1OC)C(CC(=O)NN=C(C)C)NCC2 (stereo unspecified) | > 100 | 
COC(=O)/C(=N\Nc1nnc(C)n1N)C(C#N)c1ccc(Cl)cc1 (stereo unspecified) | > 100 | 
Cc1cccc(NC(=O)C(=O)C(C(=O)c2ccc3ccccc3c2)C2OC(=O)c3ccccc32)c1C (stereo unspecified) | 36.8 | 
CCOC(=O)[C@@H](N)CCC(=O)N[C@@H](CSCc1ccccc1)C(=O)N[C@@H](C(=O)OCC)c1ccccc1 | 24.2 | 10.9
COc1ccc(Nc2c3ccccc3nc3occc23)cc1 | 31.5 | 7.36
CS/C(N)=N\NC(=O)CCC(=O)Nc1ccccc1C(F)(F)F | > 100 | 
CC(=O)/C(C)=N/NC(=O)c1ccccc1O | > 10 | 
CCCCCCCC/C=C/CCCCCCCC(=O)OC[C@H]1O[C@@H](n2ccc(N)nc2=O)C(F)(F)[C@@H]1O | 34.7 | 0.141
NS(=O)(=O)c1ccc(N=Nc2c(O)[nH]c3ccc(-c4cnco4)cc23)cc1 | > 25 | > 25
CCC[CH2][Sn]1([CH2]CCC)[O]CC(CN2CCCC2)[O]1 (stereo unspecified) | 23.8 | 8.45

tested on: HCT-116 colon; assay: DTP human tumour cell line panel, 48 h

SMILES | TGI [µM] | GI50 [µM]
Cc1nc(N)sc1C(=O)/C=C\c1ccc2c(c1)OCO2 | > 100 | 
CN1CCN(CCCOc2ccc3nc(Nc4ccc(Cl)c(C(F)(F)F)c4)ccc3c2)CC1 | 21.7 | 8.44
Cn1c(=O)c(C(c2ccc([N+](=O)[O-])cc2)c2c(O)c3ccccc3n(C)c2=O)cc2ccccc21 (stereo unspecified) | > 100 | 
CC(C)n1nc(-c2cc3cc(O)ccc3[nH]2)c2c(N)ncnc21 | 14.4 | 0.634
CCCCC(O)(c1ccc(Cl)cc1)C(CN1CCOCC1)c1ccc(Cl)cc1 (stereo unspecified) | 20.3 | 5.23
CCOC(=O)C1=C(C)N(NC(=O)Nc2ccccc2)C(=O)C1=P(c1ccccc1)(c1ccccc1)c1ccccc1 | > 100 | 
COc1cc(C=C2C(=O)NC(=O)NC2=O)cc(OC)c1OC | > 100 | 
Nn1c(=O)n(Cc2ccccc2)n(-c2ccccc2)c1=O | > 100 | 
